One assay addresses T1, human TLR7 (Homo sapiens, UniProt Q9NYK1).
T1 construct: host or cells: HEK-Blue TLR7 cells (engineered human embryonic kidney cells)
T1 sequence (Q9NYK1 27-1049): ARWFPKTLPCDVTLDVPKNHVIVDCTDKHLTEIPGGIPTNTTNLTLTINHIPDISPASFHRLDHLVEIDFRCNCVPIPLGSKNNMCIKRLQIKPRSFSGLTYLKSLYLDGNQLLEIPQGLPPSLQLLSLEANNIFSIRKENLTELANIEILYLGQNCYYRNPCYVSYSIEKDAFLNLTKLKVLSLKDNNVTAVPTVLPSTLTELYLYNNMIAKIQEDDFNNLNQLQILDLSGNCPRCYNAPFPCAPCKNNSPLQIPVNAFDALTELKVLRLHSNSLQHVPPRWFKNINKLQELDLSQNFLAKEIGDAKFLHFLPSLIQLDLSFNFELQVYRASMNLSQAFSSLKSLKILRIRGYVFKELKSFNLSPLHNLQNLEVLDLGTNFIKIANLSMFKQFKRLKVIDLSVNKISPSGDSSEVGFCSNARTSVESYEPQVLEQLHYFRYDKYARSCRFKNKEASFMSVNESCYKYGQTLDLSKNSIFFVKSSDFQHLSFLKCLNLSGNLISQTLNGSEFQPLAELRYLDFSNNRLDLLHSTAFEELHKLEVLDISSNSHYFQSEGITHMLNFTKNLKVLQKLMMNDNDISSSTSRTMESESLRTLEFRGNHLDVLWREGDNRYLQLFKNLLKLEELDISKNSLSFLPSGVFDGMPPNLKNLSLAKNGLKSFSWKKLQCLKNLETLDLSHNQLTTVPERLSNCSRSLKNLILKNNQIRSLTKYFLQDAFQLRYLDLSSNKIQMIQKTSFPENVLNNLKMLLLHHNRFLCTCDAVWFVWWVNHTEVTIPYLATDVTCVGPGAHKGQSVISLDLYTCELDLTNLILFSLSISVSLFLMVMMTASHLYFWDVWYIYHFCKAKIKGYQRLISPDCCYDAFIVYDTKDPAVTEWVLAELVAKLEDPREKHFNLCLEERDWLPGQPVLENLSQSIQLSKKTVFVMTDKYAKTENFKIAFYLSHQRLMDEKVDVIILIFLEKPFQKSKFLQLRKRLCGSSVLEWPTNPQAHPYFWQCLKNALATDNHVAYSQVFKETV
Kind of assay: Human TLR7 agonist activity assay (HEK-Blue TLR7 SEAP reporter). As to conditions: HEK-Blue TLR7 cells, 18 h treatment, average where assay performed multiple times, read-out: hTLR7 Agonism EC50. Format: cell-based. The method, then:
This procedure describes a method for assaying human TLR7 (hTLR7) agonist activity of the compounds disclosed in this specification.
HEK-Blue™ TLR7 cells were added to each well of a 384-well tissue-culture plate (15,000 cells per well) and incubated 16-18 h at 37° C., 5% CO2. Compounds (100 nl) were dispensed into wells containing the HEK-Blue™ TLR cells and the treated cells were incubated at 37° C., 5% CO2. After 18 h treatment ten microliters of freshly-prepared Quanti-Blue™ reagent (Invivogen) was added to each well, incubated for 30 min (37° C., 5% CO2) and SEAP levels measured using an Envision plate reader (OD=620 nm). The half maximal effective concentration values (EC50; compound concentration which induced a response halfway between the assay baseline and maximum) were calculated.

The test system of the next assay is CD69. Kind of assay: Induction of CD69 in human whole blood. As to conditions: Homo sapiens, 17 h, 100% set to 1 uM of resiquimod, average where assay performed multiple times, read-out: hWB CD69 EC50. Format: cell-based. Here is the method:
The induction of Type I interferon (IFN) MX-1 genes and the B-cell activation marker CD69 are downstream events that occur upon activation of the TLR7 pathway. The following is a human whole blood assay that measures their induction in response to a TLR7 agonist.
Heparinized human whole blood was harvested from human subjects and treated with test TLR7 agonist compounds at 1 mM. The blood was diluted with RPMI 1640 media and Echo was used to predot 10 nL per well giving a final concentration of 1 uM (10 nL in 10 uL of blood). After mixing on a shaker for 30 sec, the plates were covered and placed in a 37° C. chamber for o/n=17 hrs. Fixing/lysis buffer was prepared (5×->1× in H2O, warm at 37° C.; Cat #BD 558049) and kept the perm buffer (on ice) for later use.
For surface markers staining (CD69): prepared surface Abs: 0.045 ul hCD14-FITC (ThermoFisher Cat #MHCD1401)+0.6 ul hCD19-ef450 (ThermoFisher Cat #48-0198-42)+1.5 ul hCD69-PE (cat #BD555531)+0.855 ul FACS buffer. Added 3 ul/well, spin1000 rpm for 1 min and mixed on shaker for 30 sec, put on ice for 30 mins. Stop stimulation after 30 minutes with 70 uL of prewarmed 1× fix/lysis buffer and use Feliex mate to resuspend (15 times, change tips for each plate) and incubate at 37 C for 10 minutes.
Centrifuge at 2000 rpm for 5 minutes aspirate with HCS plate washer, mix on shaker for 30 sec and then wash with 70 uL in dPBS and pelleted 2×s (2000 rpm for 5 min) and 50 ul wash in FACS buffer pelleted 1×s (2000 rpm for 5 min). Mix on shaker for 30 sec. For Intracellular markers staining (MX-1): Add 50 ul of BD Perm buffer III and mix on shaker for 30 sec. Incubate on ice for 30 minutes (in the dark). Wash with 50 uL of FACS buffer 2×(spin @2300 rpm×5 min after perm) followed by mixing on shaker for 30 sec. Resuspended in 20 ul of FACS buffer containing MX1 antibody ( )(4812)-Alexa 647: Novus Biologicals #NBP2-43704AF647) 20 ul FACS bf+0.8 ul hIgG+0.04 ul MX-1. Spin 1000 rpm for 1 min, mix on shaker for 30 se and the samples were incubated at RT in the dark for 45 minutes followed by washing 2×FACS buffer (spin @2300 rpm×5 min after perm). Resuspend 20 ul (35 uL total per well) of FACS buffer and cover with foil and place in 4° C. to read the following day. Plates were read on iQuePlus. The results were loaded into toolset and IC50 curves are generated in curve master. The y-axis 100% is set to 1 uM of resiquimod.

The record followed here is US20230144824A1, “1H-PYRAZOLO[4,3-d]PYRIMIDINE COMPOUNDS AS TOLL-LIKE RECEPTOR 7 (TLR7) AGONISTS” (BRISTOL-MYERS SQUIBB COMPANY, priority 2020, published 2023).

Structures are written as SMILES.

Consider `CCC[C@@H](CCO)Nc1nc(N)nc2cnn(Cc3ccc(C4CN(CCO)CCN4)cc3OC)c12` (stereo partly drawn) [Compound 181, (3S)-3-{[5-amino-1-({4-[4-(2-hydroxyethyl)piperazin-2-yl]-2-methoxyphenyl}methyl)-1H-pyrazolo[4,3-d]pyrimidin-7-yl]amino}hexan-1-ol], for which the EC50 at human TLR7 amounted to 0.139 µM; in the assay on CD69, 0.00457 µM.
For `CCCCNc1nc(N)nc2cnn(Cc3ncc(C4CC(C)(C)NC(C)(C)C4)cc3OC)c12` [Compound 170, N7-butyl-1-{[3-methoxy-5-(2,2,6,6-tetramethylpiperidin-4-yl)pyridin-2-yl]methyl}-1H-pyrazolo[4,3-d]pyrimidine-5,7-diamine] the same measures were 0.209 µM and 0.0426 µM.
With `COc1cc(C2CCN(C3CNC3)CC2)cnc1Cn1ncc2nc(N)nc(NCc3cc(C)on3)c21` [Compound 143, 1-({5-[1-(azetidin-3-yl)piperidin-4-yl]-3-methoxypyridin-2-yl}methyl)-N7-[(5-methyl-1,2-oxazol-3-yl)methyl]-1H-pyrazolo[4,3-d]pyrimidine-5,7-diamine], the results for the EC50 on human TLR7 and in the assay on CD69 were 0.295 µM and 0.265 µM, respectively.
In the same order, the values of `CCC[C@@H](CCO)Nc1nc(N)nc2cnn(Cc3ncc(C4CCN(C(C)C)CC4)cc3OC)c12` [Compound 126, (3S)-3-{[5-amino-1-({3-methoxy-5-[1-(propan-2-yl)piperidin-4-yl]pyridin-2-yl}methyl)-1H-pyrazolo[4,3-d]pyrimidin-7-yl]amino}hexan-1-ol] are 0.0155 µM and 0.002 µM.
In the same order, the values of `COc1cc(C2CCN(C3CNC3)CC2)cnc1Cn1ncc2nc(N)nc(NCC3CC4(CC4)C3)c21` [Compound 158, 1-({5-[1-(azetidin-3-yl)piperidin-4-yl]-3-methoxypyridin-2-yl}methyl)-N7-({spiro[2.3]hexan-5-yl}methyl)-1H-pyrazolo[4,3-d]pyrimidine-5,7-diamine] are 0.224 µM and 0.0694 µM.
As to `CCCCNc1nc(N)nc2cnn(Cc3ccc(C4CCN(S(C)(=O)=O)CC4)cc3OC)c12` [Compound 161, N7-butyl-1-{[4-(1-methanesulfonylpiperidin-4-yl)-2-methoxyphenyl]methyl}-1H-pyrazolo[4,3-d]pyrimidine-5,7-diamine], the EC50 at human TLR7 was 0.107 µM; in the assay with CD69 it was 0.036 µM.
In the same order, the values of `CCCCNc1nc(N)nc2cnn(Cc3ncc(C4CCN(C=O)CC4)cc3OC)c12` [Compound 132, 4-(6-{[5-amino-7-(butylamino)-1H-pyrazolo[4,3-d]pyrimidin-1-yl]methyl}-5-methoxypyridin-3-yl)piperidine-1-carbaldehyde] are 0.18 µM and 0.195 µM.
Take `COc1cc(C2CCN(C3CCOCC3)CC2)cnc1Cn1ncc2nc(N)nc(NCc3noc(C)n3)c21` [Compound 200, 1-({3-methoxy-5-[1-(oxan-4-yl)piperidin-4-yl]pyridin-2-yl}methyl)-N7-[(5-methyl-1,2,4-oxadiazol-3-yl)methyl]-1H-pyrazolo[4,3-d]pyrimidine-5,7-diamine]: the EC50 on human TLR7 amounted to 0.117 µM.
Same read-out and setting: for `CCC[C@@H](CCO)Nc1nc(N)nc2cnn(Cc3ncc(C4CCN(CCS(C)(=O)=O)CC4)cc3OC)c12` [Compound 206, (3S)-3-{[5-amino-1-({5-[1-(2-methanesulfonylethyl)piperidin-4-yl]-3-methoxypyridin-2-yl}methyl)-1H-pyrazolo[4,3-d]pyrimidin-7-yl]amino}hexan-1-ol] the value was 0.0749 µM; for `CCC[C@@H](CCO)Nc1nc(N)nc2cnn(Cc3ncc(C4CCN(C5CCOC5)CC4)cc3OC)c12` (single isomer, unassigned) [Compound 212], 0.0065 µM.
The same measure, in the same setting: for `CCC[C@@H](CCO)Nc1nc(N)nc2cnn(Cc3ncc(C4CCN(Cc5ncn(C)n5)CC4)cc3OC)c12` [Compound 204, (3S)-3-({5-amino-1-[(3-methoxy-5-{1-[(1-methyl-1H-1,2,4-triazol-3-yl)methyl]piperidin-4-yl}pyridin-2-yl)methyl]-1H-pyrazolo[4,3-d]pyrimidin-7-yl}amino)hexan-1-ol] the value was 0.0911 µM; for `CCCCNc1nc(N)nc2cnn(Cc3ncc(C4CCN(C(CC)CC)CC4)cc3OC)c12` [Compound 130, N7-butyl-1-({3-methoxy-5-[1-(pentan-3-yl)piperidin-4-yl]pyridin-2-yl}methyl)-1H-pyrazolo[4,3-d]pyrimidine-5,7-diamine], 0.119 µM; for `COc1cc(C2CCN(C(C)C)CC2)cnc1Cn1ncc2nc(N)nc(NCC3CC4(CC4)C3)c21` [Compound 156, 1-({3-methoxy-5-[1-(propan-2-yl)piperidin-4-yl]pyridin-2-yl}methyl)-N7-({spiro[2.3]hexan-5-yl}methyl)-1H-pyrazolo[4,3-d]pyrimidine-5,7-diamine], 0.0409 µM.
In the case of `CCC[C@@H](CCO)Nc1nc(N)nc2c(C)nn(Cc3cnc(C4CCN(CC#N)CC4)cc3OC)c12` [Compound 220, 2-(4-{5-[(5-amino-7-{[(3S)-1-hydroxyhexan-3-yl]amino}-3-methyl-1H-pyrazolo[4,3-d]pyrimidin-1-yl)methyl]-4-methoxypyridin-2-yl}piperidin-1-yl)acetonitrile], the EC50 at human TLR7 was 0.436 µM.
As for `CCCCNc1nc(N)nc2cnn(Cc3cnc(C4CCN(C5CCOCC5)CC4)cc3OC)c12` [Compound 219, N7-butyl-1-({4-methoxy-6-[1-(oxan-4-yl)piperidin-4-yl]pyridin-3-yl}methyl)-1H-pyrazolo[4,3-d]pyrimidine-5,7-diamine], the EC50 on human TLR7 was 0.0219 µM.
On the same count and under the same terms, under `CCC[C@@H](CCO)Nc1nc(N)nc2cnn(Cc3ncc(C4CCN(Cc5ncco5)CC4)cc3OC)c12` [Compound 207, (3S)-3-({5-amino-1-[(3-methoxy-5-{1-[(1,3-oxazol-2-yl)methyl]piperidin-4-yl}pyridin-2-yl)methyl]-1H-pyrazolo[4,3-d]pyrimidin-7-yl}amino)hexan-1-ol] stands 0.0251 µM.
`CCC[C@@H](CCO)Nc1nc(N)nc2cnn(Cc3ncc(C4CCCNC4)cc3OC)c12` (single isomer, unassigned) [Compound 201]: at human TLR7, the EC50 turned out to be 0.256 µM.

In general, EC50 refers to the concentration that produces a half-maximal response.
